The record followed here is ChEMBL document CHEMBL5154927, “Discovery of Novel Bicyclic Phenylselenyl-Containing Hybrids: An Orally Bioavailable, Potential, and Multiacting Class of Estrogen Receptor Modulators against Endocrine-Resistant Breast Cancer” (J Med Chem, 2022).

Calls of active or inactive are those of the source. The rule behind the calls is not given here.

The subject of series [1] is LCC2. Briefly: Induction of apoptosis in tamoxifen-resistant human LCC2 cells assessed as decrease in Bcl2 level at 5 to 30 uM incubated for 48 hrs by western blot analysis. As to conditions: dose 5-30 µM. The series is classed as functional, cell-based. Background: A western blot detects proteins with antibodies after separation by electrophoresis.
Series [2] in a line: Toxicity in BALB/C mouse xenografted with human MCF7 cells assessed as morphological changes in kidney at 10 to 20 mg/kg, po by hematoxylin and eosin staining based analysis. It counts as organism-based. The following applies: in vivo, dose 10-20 mg/kg. For orientation: A xenograft is tissue or cells of one species grown in another, often human tumour cells in immunodeficient mice.

Series [3] in a line: Cmax in BALB/C mouse at 20 mg/kg, po by LC-MS/MS analysis. It counts as ADME, organism-based. Also noted: dose 20 mg/kg, route po. The following applies: in vivo.
Series [4] in a line: Toxicity in BALB/C mouse xenografted with human MCF7 cells assessed as morphological changes in heart at 10 to 20 mg/kg, po by hematoxylin and eosin staining based analysis. The series is classed as organism-based. As to conditions: in vivo, dose 10-20 mg/kg.
Series [5] deals with LCC2. Briefly: Induction of apoptosis in tamoxifen-resistant human LCC2 cells assessed as decrease in Bcl-2/Bax ratio by western blot analysis. It counts as functional, cell-based. The following applies: DDE = dose-dependent effect.
A short description of series [6]: Antiproliferative activity against human MCF-10A cells assessed as reduction in cell viability measured after 72 hrs by Cell Counting Kit-8 assay. The series is classed as toxicity, cell-based.
A short description of series [7]: Oral bioavailability in BALB/C mouse at 20 mg/kg by LC-MS/MS analysis. It counts as ADME, organism-based. The following applies: in vivo.
A short description of series [8]: Volume of distribution at steady state in BALB/C mouse at 5 mg/kg, iv by LC-MS/MS analysis. It counts as ADME, organism-based. The following applies: in vivo, read-out: Vdss.
Series [9] concerns MCF7. Briefly: Antitumor activity against human MCF7 cells xenografted in BALB/C mouse assessed as reduction of tumor volume at 20 mg/kg, po measured every 2 days for 34 days. It counts as functional, organism-based. As to conditions: time 34.0 day.
Series [10] has as its system LCC2. The series is described as follows: Induction of ROS production in tamoxifen-resistant human LCC2 cells at 1 to 4 uM measured after 48 hrs by DCFH-DA staining based confocal laser scanning microscopic method. The series is classed as functional, cell-based. As to conditions: dose 1-4 µM.
A short description of series [11]: Toxicity in BALB/C mouse xenografted with human MCF7 cells assessed as morphological changes in liver at 10 to 20 mg/kg, po by hematoxylin and eosin staining based analysis. It counts as organism-based. The following applies: in vivo, dose 10-20 mg/kg.
The nature of series [12]: Toxicity in BALB/C mouse xenografted with tamoxifen-resistant human LCC2 cells assessed as effect on body weight at 20 mg/kg, po measured after 22 days. It counts as organism-based. As to conditions: in vivo, 528 h, time 22 day.
Series [13] deals with MCF7. Briefly: Downregulation of hexokinase-1 expression in human MCF7 cell mitochondria at 16 uM measured after 24 hrs by DAPI staining based immunofluorescence microscopy. It counts as functional.
Series [14] can be described thus: Toxicity in BALB/C mouse xenografted with tamoxifen-resistant human LCC2 cells assessed as mortality at 20 mg/kg, po measured after 22 days. The series is classed as organism-based. As to conditions: in vivo, 528 h, time 22 day.
A short description of series [15]: Antitumor activity against tamoxifen-resistant human LCC2 cells xenografted in BALB/C mouse assessed as tumor growth inhibition at 20 mg/kg, po measured every 2 days for 22 days. The series is classed as functional. The following applies: LCC2, 528 h, time 22 day, read-out: TGI.
Series [16] relates to LCC2. The series is described as follows: Induction of apoptosis in tamoxifen-resistant human LCC2 cells at 5 to 30 uM incubated for 48 hrs by annexin V-FITC staining based flow cytometry. As to conditions: dose 5-30 µM. The series is classed as functional, cell-based.
The nature of series [17]: AUC in BALB/C mouse at 20 mg/kg, po by LC-MS/MS analysis. It counts as ADME, organism-based. Also noted: dose 20 mg/kg, route po. As to conditions: in vivo.
For series [18], the system named is MCF7. The series is described as follows: Induction of apoptosis in human MCF7 cells assessed as total apoptotic cells at 0.5 uM incubated for 48 hrs by annexin V-FITC staining based flow cytometry. It counts as functional.
Series [19] in a line: Toxicity in BALB/C mouse xenografted with human MCF7 cells assessed as change in body weight at 10 to 20 mg/kg, po measured every 2 days for 34 days. The following applies: in vivo, 816 h, dose 10-20 mg/kg, time 34 day. It counts as organism-based.
Series [20] deals with MCF7. Briefly: Antitumor activity against human MCF7 cells xenografted in BALB/C mouse assessed as increase in tumor necrosis area at 20 mg/kg, po […]. It counts as functional, organism-based.

One may read the Cmax as the peak of the concentration-time curve. For orientation: IC50 means the concentration that gives 50% inhibition. The term bioavailability denotes the share of a dose that reaches the circulation, judged against a reference dose that is usually intravenous. A high value points to much systemic uptake. One may read the AUC as the area under the concentration-time curve, a measure of exposure. A lower AUC goes with low exposure. In the case of `O=S(=O)(Oc1cccc2ccccc12)C1CC2OC1C(c1ccc([Se]c3ccccc3)cc1)=C2c1ccc(O)cc1` (stereo not given), the result in the series with LCC2 [1], in the series on MCF7 [9], with LCC2 [10], in the series with MCF7 [13], in the series on LCC2 [16] and in the series on MCF7 [20] was Active. In addition, the Activity result was “Non-Toxic” in series [2]; “Non-Toxic” in series [4]; “Dde” with LCC2 [5]; “Non-Toxic” in series [11]; “Non-Toxic” in series [12]; “Non-Toxic” in series [14]. Moreover, the Activity in the series with MCF7 [18] was 9.16%; in series [19], “Non-Toxic”. Also, the Cmax in series [3] was found to be 400 ng/mL. For the same compound, the IC50 at 72 h in series [6] was above 60 µM. In [7], this compound registered a bioavailability of 23.2%. Moreover, the Vd in series [8] turned out to be 21.6 L/kg. For the same compound, the inhibition in vivo at 20 mg/kg in series [15] stood at 57.3%. The compound also returned an AUC in series [17] of 1430 ng·h/mL.
